For series [1], the target named is T1, mineralocorticoid receptor (Rattus norvegicus, UniProt P22199).
T1 construct: H9C2 cells are myoblasts genetically modified by the incorporation of the reporter gene encoding luciferase; endogenous in cells; host or cells: H9C2 myoblasts carrying a luciferase reporter
T1 sequence (P22199 1-981): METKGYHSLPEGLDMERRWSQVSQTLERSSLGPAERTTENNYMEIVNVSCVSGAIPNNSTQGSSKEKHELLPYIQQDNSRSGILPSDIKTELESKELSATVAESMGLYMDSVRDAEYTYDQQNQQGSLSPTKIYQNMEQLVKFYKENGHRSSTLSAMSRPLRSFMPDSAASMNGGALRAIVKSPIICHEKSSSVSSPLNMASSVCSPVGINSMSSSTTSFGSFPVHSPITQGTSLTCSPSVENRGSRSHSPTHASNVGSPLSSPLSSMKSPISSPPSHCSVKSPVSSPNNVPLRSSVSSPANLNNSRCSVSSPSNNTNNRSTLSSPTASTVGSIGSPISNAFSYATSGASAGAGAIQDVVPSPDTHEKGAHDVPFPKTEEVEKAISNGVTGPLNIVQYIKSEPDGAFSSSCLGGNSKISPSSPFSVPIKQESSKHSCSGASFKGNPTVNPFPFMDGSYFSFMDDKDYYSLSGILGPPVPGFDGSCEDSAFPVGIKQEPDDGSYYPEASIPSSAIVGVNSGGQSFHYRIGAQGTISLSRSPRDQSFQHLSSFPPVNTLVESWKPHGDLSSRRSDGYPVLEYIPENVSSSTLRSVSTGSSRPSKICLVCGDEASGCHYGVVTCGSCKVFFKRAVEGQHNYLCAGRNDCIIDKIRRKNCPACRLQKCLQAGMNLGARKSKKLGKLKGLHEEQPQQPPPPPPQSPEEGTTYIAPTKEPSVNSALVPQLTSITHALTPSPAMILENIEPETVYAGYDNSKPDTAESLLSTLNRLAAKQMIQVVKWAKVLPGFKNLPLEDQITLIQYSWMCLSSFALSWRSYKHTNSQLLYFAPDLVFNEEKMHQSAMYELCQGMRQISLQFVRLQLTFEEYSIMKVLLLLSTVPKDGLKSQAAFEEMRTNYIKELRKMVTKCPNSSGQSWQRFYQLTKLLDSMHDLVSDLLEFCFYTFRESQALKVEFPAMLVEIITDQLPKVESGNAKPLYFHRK
As to the kind of experiment: Biological activity of spironolactone: luciferase reporter in H9C2 cells incubated with aldosterone. It is filed as cell-based. The following applies: FIG. 12.
Procedure: The biological activity of the spironolactone was measured in the following manner: H9C2 cells are myoblasts genetically modified by the incorporation of the reporter gene encoding luciferase downstream of the promoter having sequences binding the complex of aldosterone plus its receptor. When aldosterone was added, luciferase was expressed and detected by bioluminescence. […] This inhibition reports the biological activity of the spironolactone on H9C2s incubated with aldosterone. The spironolactone activity was measured directly on the spironolactone releasing liquid originating from the different types of hydrogels tested.
FIG. 12 represents the biological activity of the spironolactone released from a hydrogel after 15 days of incubation in PBS (with changing of the buffer every day); when the following are used:
(2) a mixture of a material MB-S with aldosterone at approximately 10^−8 M,
(3) a mixture of a material MC-S with aldosterone at approximately 10^−8 M,
(4) a mixture of a material MA-S with aldosterone at approximately 10^−8 M,
(5) a negative control (well containing the culture medium without aldosterone),
(6) aldosterone at approximately 10^−8 M, and
(7) a mixture of aldosterone at approximately 10^−8 M and spironolactone at approximately 10^−6 M.

For series [2], the system named is primary human dermal fibroblasts. As to the kind of experiment: Toxicity of the materials: cell viability by metabolic test (AlamarBlue Assay). It is filed as cell-based. The settings on record: FIG. 11. As to the method: The toxicity of the materials was measured as follows: primary human dermal fibroblasts were seeded onto a culture plate. The composite hydrogels were then incubated with the fibroblasts for 1 or 6 days. The cell viability was measured by a metabolic test (AlamarBlue Assay®) and compared with that of control fibroblasts (without addition of composite hydrogel).
FIG. 11 represents the toxicity of the composite biomaterial of the invention M1-S on cells (fibroblasts) and by way of comparison: • the toxicity of a dry collagen material impregnated with spironolactone MB-S obtained from the dehydrated pure collagen material MA-HD as obtained in example 1.3 which was impregnated with a solution comprising approximately 10^−2 M of spironolactone in THF, rinsed and lyophilized in accordance with example 1.4 above, • the toxicity of a dry collagen material impregnated with PLGA MC-S obtained from the dehydrated pure collagen material MA-HD as obtained in example 1.3 which was impregnated with a solution comprising approximately 160 mg/ml of PLGA 30-60 kDa in THF, rinsed and lyophilized in accordance with example 1.4, and • the toxicity of a dry pure collagen material MA-S as obtained in example 1.3.
Moreover, C represents a negative control (well containing just the cells without hydrogel). […]
Background: Alamar Blue is a resazurin reagent that responds to reducing activity.

As to `C[C@]12CCC(=O)C=C1CC[C@@H]1[C@@H]2[C@@H](O)C[C@]2(C=O)[C@@H](C(=O)CO)CC[C@@H]12` [aldosterone], the “production of luciferase (receptor activation)” value in series [1] (aldosterone approximately 10^-8 M alone, conditions (6) versus negative control (5)) was “caused strong transcription”.

For the compound `CC(=O)S[C@@H]1CC2=CC(=O)CC[C@]2(C)[C@H]2CC[C@@]3(C)[C@@H](CC[C@@]34CCC(=O)O4)[C@H]12` [spironolactone], the “production of luciferase (inhibition of aldosterone effect)” value in series [1] (free spironolactone approximately 10^-6 M with aldosterone approximately 10^-8 M, conditions (7)) is recorded as “the effect of the aldosterone is inhibited”. Also, the “toxicity on cells (in words)” value in series [2] (1 day and 6 days, compared with control) was “slight toxic effect”. For the same compound, in series [2] (first day, relative to negative control C), the “cell viability (cells survived)” value is 74%.

These data come from US20190151495A1, “Composite biomaterials with controlled release of active ingredient, preparation process and uses” (CENTRE NATIONAL DE LA RECHERCHE SCIENTIFIQUE, priority 2016, published 2019).
